± gives the expanded uncertainty stated by the source.
Settings: Liquid

Cc1ccccc1 [toluene]
viscosity [mPa·s], Vibrating wire viscometry
Settings | 293.15 K | 298.15 K | 313.15 K | 323.15 K | 333.15 K | 348.15 K | 353.15 K | 373.15 K
100 kPa | 0.5907 ± 0.01 | 0.5555 ± 0.01 | 0.469 ± 0.0088 | 0.4214 ± 0.0081 | 0.3804 ± 0.0075 | 0.3302 ± 0.0068 | 0.3163 ± 0.0067 | 0.2667 ± 0.006
1000 kPa | 0.5928 ± 0.01 | 0.5603 ± 0.01 | 0.4746 ± 0.0088 | 0.4238 ± 0.0081 | 0.3856 ± 0.0076 | 0.3361 ± 0.0069 | 0.3177 ± 0.0067 | 0.2671 ± 0.006
5000 kPa | 0.6152 ± 0.011 | 0.5772 ± 0.01 | 0.4885 ± 0.009 | 0.4385 ± 0.0083 | 0.3986 ± 0.0078 | 0.3457 ± 0.007 | 0.3319 ± 0.0069 | 0.2782 ± 0.0062
10000 kPa | 0.6387 ± 0.011 | 0.6006 ± 0.011 | 0.5046 ± 0.0093 | 0.4551 ± 0.0086 | 0.4153 ± 0.008 | 0.3588 ± 0.0072 | 0.3449 ± 0.007 | 0.2893 ± 0.0063
20000 kPa | 0.6881 ± 0.012 | 0.6478 ± 0.011 | 0.5496 ± 0.0099 | 0.4877 ± 0.009 | 0.4495 ± 0.0085 | 0.3876 ± 0.0076 | 0.3701 ± 0.0074 | 0.315 ± 0.0066
30000 kPa | 0.7354 ± 0.013 | 0.692 ± 0.012 | 0.5914 ± 0.01 | 0.5293 ± 0.0096 | 0.4794 ± 0.0089 | 0.418 ± 0.008 | 0.4006 ± 0.0078 | 0.3401 ± 0.007
40000 kPa | 0.7913 ± 0.013 | 0.7442 ± 0.013 | 0.6239 ± 0.011 | 0.565 ± 0.01 | 0.5135 ± 0.0094 | 0.4485 ± 0.0085 | 0.4291 ± 0.0082 | 0.3643 ± 0.0073
50000 kPa | 0.8532 ± 0.014 | 0.7983 ± 0.014 | 0.6704 ± 0.012 | 0.6021 ± 0.011 | 0.5485 ± 0.0099 | 0.4795 ± 0.0089 | 0.462 ± 0.0087 | 0.3876 ± 0.0076
60000 kPa | 0.908 ± 0.015 | 0.8463 ± 0.014 | 0.7133 ± 0.012 | 0.6377 ± 0.011 | 0.5835 ± 0.01 | 0.5089 ± 0.0093 | 0.4919 ± 0.0091 | 0.4138 ± 0.008
70000 kPa | 0.9632 ± 0.016 | 0.9027 ± 0.015 | 0.7572 ± 0.013 | 0.6789 ± 0.012 | 0.6187 ± 0.011 | 0.5441 ± 0.0098 | 0.5176 ± 0.0095 | 0.4372 ± 0.0083
80000 kPa | 1.022 ± 0.017 | 0.9625 ± 0.016 | 0.8098 ± 0.014 | 0.7322 ± 0.013 | 0.6579 ± 0.011 | 0.5721 ± 0.01 | 0.5478 ± 0.0099 | 0.4649 ± 0.0087
100000 kPa | 1.149 ± 0.019 | 1.081 ± 0.018 | 0.9082 ± 0.015 | 0.809 ± 0.014 | 0.7353 ± 0.013 | 0.6407 ± 0.011 | 0.6113 ± 0.011 | 0.5193 ± 0.0095
120000 kPa | 1.287 ± 0.021 | 1.211 ± 0.02 | 1.009 ± 0.017 | 0.9034 ± 0.015 | 0.8176 ± 0.014 | 0.7088 ± 0.012 | 0.6825 ± 0.012 | –
140000 kPa | 1.456 ± 0.024 | 1.349 ± 0.022 | 1.128 ± 0.019 | 1.004 ± 0.017 | 0.9111 ± 0.015 | 0.7836 ± 0.013 | 0.755 ± 0.013 | –

CCCCCCCCCCCC [dodecane]
viscosity [mPa·s]
Settings | 293.15 K | 313.15 K | 333.15 K | 353.15 K | 373.15 K
100 kPa, Vibrating wire viscometry | 1.491 ± 0.025 | 1.064 ± 0.018 | 0.8013 ± 0.014 | 0.6281 ± 0.011 | 0.5055 ± 0.0096
1000 kPa, Vibrating wire viscometry | 1.507 ± 0.025 | 1.074 ± 0.018 | 0.8127 ± 0.014 | 0.6372 ± 0.012 | 0.5149 ± 0.0097
5000 kPa, Falling or rolling sphere viscometry | – | 1.135 ± 0.056 | 0.8518 ± 0.042 | 0.6657 ± 0.033 | –
5000 kPa, Vibrating wire viscometry | 1.586 ± 0.027 | 1.124 ± 0.019 | 0.855 ± 0.015 | 0.6713 ± 0.012 | 0.5392 ± 0.01
10000 kPa, Falling or rolling sphere viscometry | – | 1.218 ± 0.061 | 0.903 ± 0.045 | 0.7047 ± 0.035 | –
10000 kPa, Vibrating wire viscometry | 1.672 ± 0.028 | 1.201 ± 0.021 | 0.8975 ± 0.016 | 0.7053 ± 0.013 | 0.5743 ± 0.011
20000 kPa, Falling or rolling sphere viscometry | – | – | 1.002 ± 0.05 | 0.7791 ± 0.039 | –
20000 kPa, Vibrating wire viscometry | 1.877 ± 0.031 | 1.324 ± 0.023 | 1.001 ± 0.017 | 0.7819 ± 0.014 | 0.6286 ± 0.011
30000 kPa, Falling or rolling sphere viscometry | – | – | 1.112 ± 0.055 | 0.8651 ± 0.043 | –
30000 kPa, Vibrating wire viscometry | 2.084 ± 0.035 | 1.476 ± 0.025 | 1.095 ± 0.019 | 0.8694 ± 0.015 | 0.7003 ± 0.013
40000 kPa, Falling or rolling sphere viscometry | – | – | 1.223 ± 0.061 | 0.9597 ± 0.048 | –
40000 kPa, Vibrating wire viscometry | 2.31 ± 0.038 | 1.625 ± 0.027 | 1.216 ± 0.021 | 0.9528 ± 0.017 | 0.7715 ± 0.014
50000 kPa, Vibrating wire viscometry | 2.56 ± 0.042 | 1.778 ± 0.03 | 1.321 ± 0.023 | 1.037 ± 0.018 | 0.8425 ± 0.015
60000 kPa, Falling or rolling sphere viscometry | – | – | – | 1.121 ± 0.056 | –
60000 kPa, Vibrating wire viscometry | 2.822 ± 0.047 | 1.946 ± 0.032 | 1.44 ± 0.024 | 1.123 ± 0.019 | 0.91 ± 0.016
70000 kPa, Vibrating wire viscometry | 3.112 ± 0.051 | 2.129 ± 0.035 | 1.576 ± 0.026 | 1.213 ± 0.021 | 0.9844 ± 0.017
80000 kPa, Vibrating wire viscometry | 3.428 ± 0.056 | 2.32 ± 0.038 | 1.707 ± 0.029 | 1.312 ± 0.022 | 1.066 ± 0.018
100000 kPa, Vibrating wire viscometry | 4.117 ± 0.068 | 2.758 ± 0.046 | 1.994 ± 0.033 | 1.532 ± 0.026 | 1.22 ± 0.021
120000 kPa, Vibrating wire viscometry | 4.953 ± 0.081 | 3.231 ± 0.053 | 2.302 ± 0.038 | 1.757 ± 0.029 | 1.402 ± 0.024
140000 kPa, Vibrating wire viscometry | 5.816 ± 0.095 | 3.755 ± 0.062 | 2.657 ± 0.044 | 2.023 ± 0.034 | 1.588 ± 0.027

Source: the NIST ThermoML archive (doi:10.1016/j.jct.2015.12.021)
